Molecular target: T1, human parathyroid cell Ca^2+ receptor (hPCaR) (Homo sapiens, UniProt P41180)
T1 construct: expressed in transfected cells
T1 sequence (P41180 20-1078): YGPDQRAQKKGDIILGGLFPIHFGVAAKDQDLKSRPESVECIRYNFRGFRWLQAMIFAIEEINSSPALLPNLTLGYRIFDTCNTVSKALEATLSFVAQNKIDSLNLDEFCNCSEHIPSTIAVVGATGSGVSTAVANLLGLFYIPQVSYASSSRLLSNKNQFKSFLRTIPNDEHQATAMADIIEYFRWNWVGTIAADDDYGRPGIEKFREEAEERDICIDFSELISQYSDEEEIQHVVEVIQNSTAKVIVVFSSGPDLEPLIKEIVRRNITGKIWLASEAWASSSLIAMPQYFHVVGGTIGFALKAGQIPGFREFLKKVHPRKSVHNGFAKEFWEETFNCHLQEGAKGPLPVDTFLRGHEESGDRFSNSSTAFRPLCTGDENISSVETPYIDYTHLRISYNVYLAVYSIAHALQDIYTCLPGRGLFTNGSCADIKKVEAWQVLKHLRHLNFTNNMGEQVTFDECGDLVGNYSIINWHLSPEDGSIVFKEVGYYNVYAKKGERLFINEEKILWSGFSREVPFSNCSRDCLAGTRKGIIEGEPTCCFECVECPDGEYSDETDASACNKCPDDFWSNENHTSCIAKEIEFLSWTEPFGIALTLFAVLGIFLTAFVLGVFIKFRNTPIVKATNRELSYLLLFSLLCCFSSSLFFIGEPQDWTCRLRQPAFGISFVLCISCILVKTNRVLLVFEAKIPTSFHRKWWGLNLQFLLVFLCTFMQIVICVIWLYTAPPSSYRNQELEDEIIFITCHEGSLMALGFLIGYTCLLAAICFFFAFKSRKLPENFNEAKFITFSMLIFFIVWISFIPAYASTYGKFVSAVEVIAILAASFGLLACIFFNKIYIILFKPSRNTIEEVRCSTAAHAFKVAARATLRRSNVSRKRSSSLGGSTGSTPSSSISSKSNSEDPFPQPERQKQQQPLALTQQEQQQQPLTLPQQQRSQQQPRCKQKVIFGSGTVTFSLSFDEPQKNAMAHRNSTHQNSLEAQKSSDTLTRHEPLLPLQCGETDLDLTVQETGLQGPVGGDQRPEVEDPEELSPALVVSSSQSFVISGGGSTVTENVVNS
Assay: [Ca2+]i measurement with fluo-3 in HEK 293 4.0-7 cells stably transfected with hPCaR
Format: cell-based
Conditions: fluo-3 fluorescence (485/530 nm), effect on [Ca^2+]i
How it was run: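 HEK 293 cells stably expressing human parathyroid Ca2+ receptor (clone 4.0-7), loaded with 2 μM fluo-3 AM for 30 min at 37 °C in parathyroid cell buffer (pH 7.45) with 1 mM CaCl2 and 0.5% BSA. After compound addition, intracellular Ca2+ followed by fluorescence at 485 nm excitation/530 nm emission.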

EC50, ≤ 10 µM:
COc1ccc(CN[C@H](C)c2cccc3ccccc23)cc1-c1ccc2ccn(C)c2c1 [(1R)-N-((3-(1-methyl-1H-indol-6-yl)-4-(methyloxy)phenyl)methyl)-1-(1-naphthalenyl)ethanamine]
COc1cccc([C@@H](C)NCc2ccc(OC)c(-c3ccc4ccn(C)c4c3)c2)c1 [(1R)-N-((3-(1-methyl-1H-indol-6-yl)-4-(methyloxy)phenyl)methyl)-1-(3-(methyloxy)phenyl)ethanamine]
COc1ccc(CN[C@H](C)c2ccccc2)cc1-c1ccc2ccn(C)c2c1 [(1R)-N-((3-(1-methyl-1H-indol-6-yl)-4-(methyloxy)phenyl)methyl)-1-phenylethanamine]
COc1ccc(CN[C@H](C)c2ccc3ccccc3c2)cc1-c1ccc2[nH]ccc2c1 [(1R)-N-((3-(1H-indol-5-yl)-4-(methyloxy)phenyl)methyl)-1-(2-naphthalenyl)ethanamine]
COc1cccc([C@@H](C)NCc2ccc(OC)c(-c3ccc4[nH]ccc4c3)c2)c1 [(1R)-N-((3-(1H-indol-5-yl)-4-(methyloxy)phenyl)methyl)-1-(3-(methyloxy)phenyl)ethanamine]
COc1ccc([C@@H](C)NCc2ccc(OC)c(-c3ccc4[nH]ccc4c3)c2)cc1 [(1R)-N-((3-(1H-indol-5-yl)-4-(methyloxy)phenyl)methyl)-1-(4-(methyloxy)phenyl)ethanamine]
COc1cccc([C@@H](C)NCc2ccc(OC)c(-c3ccc4nsnc4c3)c2)c1 [(1R)-N-((3-(2,1,3-benzothiadiazol-5-yl)-4-(methyloxy)phenyl)methyl)-1-(3-(methyloxy)phenyl)ethanamine]
COc1ccc(CN[C@H](C)c2ccccc2)cc1-c1ccc2nsnc2c1 [(1R)-N-((3-(2,1,3-benzothiadiazol-5-yl)-4-(methyloxy)phenyl)methyl)-1-phenylethanamine]
COc1ccc(CN[C@H](C)c2cccc3ccccc23)cc1-c1ccc2nonc2c1 [(1R)-N-((3-(2,1,3-benzoxadiazol-5-yl)-4-(methyloxy)phenyl)methyl)-1-(1-naphthalenyl)ethanamine]
COc1cccc([C@@H](C)NCc2ccc(OC)c(-c3ccc4nonc4c3)c2)c1 [(1R)-N-((3-(2,1,3-benzoxadiazol-5-yl)-4-(methyloxy)phenyl)methyl)-1-(3-(methyloxy)phenyl)ethanamine]
COc1ccc(CN[C@H](C)c2ccccc2)cc1-c1ccc2nonc2c1 [(1R)-N-((3-(2,1,3-benzoxadiazol-5-yl)-4-(methyloxy)phenyl)methyl)-1-phenylethanamine]
COc1ccc(CN[C@H](C)c2cccc3ccccc23)cc1-c1ccc2c(c1)OC(F)(F)O2 [(1R)-N-((3-(2,2-difluoro-1,3-benzodioxol-5-yl)-4-(methyloxy)phenyl)methyl)-1-(1-naphthalenyl)ethanamine]
COc1cccc([C@@H](C)NCc2ccc(OC)c(-c3ccc4c(c3)OC(F)(F)O4)c2)c1 [(1R)-N-((3-(2,2-difluoro-1,3-benzodioxol-5-yl)-4-(methyloxy)phenyl)methyl)-1-(3-(methyloxy)phenyl)ethanamine]
COc1ccc(CN[C@H](C)c2ccccc2)cc1-c1ccc2c(c1)OC(F)(F)O2 [(1R)-N-((3-(2,2-difluoro-1,3-benzodioxol-5-yl)-4-(methyloxy)phenyl)methyl)-1-phenylethanamine]
COc1ccc(CN[C@H](C)c2cccc3ccccc23)cc1-c1ccc2c(c1)CCO2 [(1R)-N-((3-(2,3-dihydro-1-benzofuran-5-yl)-4-(methyloxy)phenyl)methyl)-1-(1-naphthalenyl)ethanamine]
COc1cccc([C@@H](C)NCc2ccc(OC)c(-c3ccc4c(c3)CCO4)c2)c1 [(1R)-N-((3-(2,3-dihydro-1-benzofuran-5-yl)-4-(methyloxy)phenyl)methyl)-1-(3-(methyloxy)phenyl)ethanamine]
COc1ccc(CN[C@H](C)c2ccccc2)cc1-c1ccc2c(c1)CCO2 [(1R)-N-((3-(2,3-dihydro-1-benzofuran-5-yl)-4-(methyloxy)phenyl)methyl)-1-phenylethanamine]
CCn1nc2ccc(-c3cc(CN[C@H](C)c4ccccc4)ccc3OC)cc2n1 [(1R)-N-((3-(2-ethyl-2H-1,2,3-benzotriazol-5-yl)-4-(methyloxy)phenyl)methyl)-1-phenylethanamine]
COc1ccc(CN[C@H](C)c2ccccc2)cc1-c1cccnc1F [(1R)-N-((3-(2-fluoro-3-pyridinyl)-4-(methyloxy)phenyl)methyl)-1-phenylethanamine]
COc1ccc(CN[C@H](C)c2cccc3ccccc23)cc1-c1ccc2oc(C)nc2c1 [(1R)-N-((3-(2-methyl-1,3-benzoxazol-5-yl)-4-(methyloxy)phenyl)methyl)-1-(1-naphthalenyl)ethanamine]
COc1ccc(CN[C@H](C)c2ccccc2)cc1-c1ccc2oc(C)nc2c1 [(1R)-N-((3-(2-methyl-1,3-benzoxazol-5-yl)-4-(methyloxy)phenyl)methyl)-1-phenylethanamine]
COc1ccc(CN[C@H](C)c2cccc3ccccc23)cc1-c1coc(C)n1 [(1R)-N-((3-(2-methyl-1,3-oxazol-4-yl)-4-(methyloxy)phenyl)methyl)-1-(1-naphthalenyl)ethanamine]
COc1ccc(CN[C@H](C)c2ccccc2)cc1-c1coc(C)n1 [(1R)-N-((3-(2-methyl-1,3-oxazol-4-yl)-4-(methyloxy)phenyl)methyl)-1-phenylethanamine]
COc1ccc(CN[C@H](C)c2cccc3ccccc23)cc1-c1ccc2nn(C)cc2c1 [(1R)-N-((3-(2-methyl-2H-indazol-5-yl)-4-(methyloxy)phenyl)methyl)-1-(1-naphthalenyl)ethanamine]
COc1ccc(CN[C@H](C)c2cccc3ccccc23)cc1-c1ccoc1 [(1R)-N-((3-(3-furanyl)-4-(methyloxy)phenyl)methyl)-1-(1-naphthalenyl)ethanamine]
COc1cccc([C@@H](C)NCc2ccc(OC)c(-c3ccoc3)c2)c1 [(1R)-N-((3-(3-furanyl)-4-(methyloxy)phenyl)methyl)-1-(3-(methyloxy)phenyl)ethanamine]
COc1ccc(CN[C@H](C)c2ccccc2)cc1-c1ccoc1 [(1R)-N-((3-(3-furanyl)-4-(methyloxy)phenyl)methyl)-1-phenylethanamine]
COc1cccc([C@@H](C)NCc2cccc(-c3nc(C)no3)c2)c1 [(1R)-N-((3-(3-methyl-1,2,4-oxadiazol-5-yl)phenyl)methyl)-1-(3-(methyloxy)phenyl)ethanamine]
CCOc1ccc(-c2cc(CN[C@H](C)c3cccc4ccccc34)ccc2OC)cn1 [(1R)-N-((3-(6-(ethyloxy)-3-pyridinyl)-4-(methyloxy)phenyl)methyl)-1-(1-naphthalenyl)ethanamine]
